Measurements: patent US20160101188A1, “NOVEL NANOCARRIER DELIVERED CANCER CHEMOTHERAPEUTIC AGENTS” (UNIVERSITY OF CINCINNATI, priority 2013, published 2016)

Legend:
[1] = test system: Non-Small Cell Lung NCI-H522; experiment: NCI in vitro cell line screen (SRB), single dose; assay type: cell-based, human; details: Non-Small Cell Lung NCI-H522, single dose of 10 μM
Experimental: (§1) Four of the preliminary lead compounds: three nucleosides (JT-1-10, VAL-1-15/42, VAL-1-16) and one nucleobase (KB-1-17)—were submitted to the National Cancer Institute for the in vitro cell line screening project (IVCLSP). The screening consisted in the evaluation of this compound against the 60 cell lines at a single dose of 10 μM.
(§2) The human tumor cell lines of the cancer screening panel are grown in RPMI 1640 medium containing 5% fetal bovine serum and 2 mM L-glutamine. For a typical screening experiment, cells are inoculated into 96 well microtiter plates in 100 μL at plating densities ranging from 5,000 to 40,000 cells/well depending on the doubling time of individual cell lines. After cell inoculation, the microtiter plates are incubated at 37° C., 5% CO2, 95% air and 100% relative humidity for 24 h prior to addition of experimental drugs.
(§3) After 24 h, two plates of each cell line are fixed in situ with TCA, to represent a measurement of the cell population for each cell line at the time of drug addition (Tz). Experimental drugs are solubilized in dimethyl sulfoxide at 400-fold the desired final maximum test concentration and stored frozen prior to use. At the time of drug addition, an aliquot of frozen concentrate is thawed and diluted to twice the desired final maximum test concentration with complete medium containing 50 μg/ml gentamicin. Additional four, 10-fold or ½ log serial dilutions are made to provide a total of five drug concentrations plus control. Aliquots of 100 μl of these different drug dilutions are added to the appropriate microtiter wells already containing 100 μl of medium, resulting in the required final drug concentrations.
(§4) Following drug addition, the plates are incubated for an additional 48 h at 37° C., 5% CO2, 95% air, and 100% relative humidity. For adherent cells, the assay is terminated by the addition of cold TCA. Cells are fixed in situ by the gentle addition of 50 μl of cold 50% (w/v) TCA (final concentration, 10% TCA) and incubated for 60 minutes at 4° C. The supernatant is discarded, and the plates are washed five times with tap water and air dried. Sulforhodamine B (SRB) solution (100 μl) at 0.4% (w/v) in 1% acetic acid is added to each well, and plates are incubated for 10 minutes at room temperature. After staining, unbound dye is removed by washing five times with 1% acetic acid and the plates are air dried. Bound stain is subsequently solubilized with 10 mM trizma base, and the absorbance is read on an automated plate reader at a wavelength of 515 nm. For suspension cells, the methodology is the same except that the assay is terminated by fixing settled cells at the bottom of the wells by gently adding 50 μl of 80% TCA (final concentration, 16% TCA). Using the seven absorbance measurements [time zero, (Tz), control growth, (C), and test growth in the presence of drug at the five concentration levels (Ti)], the percentage growth is calculated at each of the drug concentrations levels. Percentage growth inhibition is calculated as:
(§5) [(Ti−Tz)/(C−Tz)]×100 for concentrations for which Ti>/=Tz
(§6) [(Ti−Tz)/Tz]×100 for concentrations for which Ti<Tz.
(§7) Three dose response parameters are calculated for each experimental agent. Growth inhibition of 50% (GI50) is calculated from [(Ti−Tz)/(C−Tz)]×100=50, which is the drug concentration resulting in a 50% reduction in the net protein increase (as measured by SRB staining) in control cells during the drug incubation. The drug concentration resulting in total growth inhibition (TGI) is calculated from Ti=Tz. The LC50 (concentration of drug resulting in a 50% reduction in the measured protein at the end of the drug treatment as compared to that at the beginning) indicating a net loss of cells following treatment is calculated from [(Ti−Tz)/Tz]×100=−50. […]

[2] = test system: Non-Small Cell Lung HOP-92; experiment: NCI in vitro cell line screen (SRB), single dose; assay type: cell-based, human; details: Non-Small Cell Lung HOP-92, single dose of 10 μM
Experimental: as §1, §2, §3, §4, §5, §6, §7

[3] = test system: CNS SNB-75; experiment: NCI in vitro cell line screen (SRB), single dose; assay type: cell-based, human; details: CNS SNB-75, single dose of 10 μM
Experimental: as §1, §2, §3, §4, §5, §6, §7

[4] = test system: Leukemia RPMI-8226; experiment: NCI in vitro cell line screen (SRB), single dose; assay type: cell-based, human; details: Leukemia RPMI-8226, single dose of 10 μM
Experimental: as §1, §2, §3, §4, §5, §6, §7

[5] = test system: Renal UO-31; experiment: NCI in vitro cell line screen (SRB), single dose; assay type: cell-based, human; details: Renal UO-31, single dose of 10 μM
Experimental: as §1, §2, §3, §4, §5, §6, §7

[6] = test system: Breast MSF7; experiment: NCI in vitro cell line screen (SRB), single dose; assay type: cell-based, human; details: Breast MSF7, single dose of 10 μM
Experimental: as §1, §2, §3, §4, §5, §6, §7

[7] = test system: Renal TK-10; experiment: NCI in vitro cell line screen (SRB), single dose; assay type: cell-based, human; details: Renal TK-10, single dose of 10 μM
Experimental: as §1, §2, §3, §4, §5, §6, §7

[8] = test system: MCF7 (breast cancer) cells; experiment: MTT cytotoxicity assay in MCF7 breast cancer cells; assay type: cell-based; details: 65 hours incubation, read-out: IC50, viability of MCF7 cells from the MTT assay
Experimental: The cyctoxicity of compounds was determined in MCF 7 (breast cancer) cells.
MCF7 cells were grown in RPMI 1640 media with 10 nM estrogen and 1 mM insulin. Cells were tyripsinized and resuspended at a density of 2.2×10^4 cells per mL. 500 μL of this suspension was added to each well in a 24 well plate. The plates were incubated at 37° C. and 5% CO2 atmosphere overnight. The media was changed, and plates were dosed in triplicate with compound dissolved in DMSO. Cells were dosed not to exceed 0.5% DMSO in solution. Cells were dosed to a final concentration of 100, 50, 25, 12.5, and 6.25 μM of compound. 5-Flurouracil was used as a positive control and dosed in the same manner. Plates were incubated for 65 hours prior to the addition of MTT solution. 500 μL of a 193 μg/mL MTT and media solution was added to each well. Plates were incubated for 3 hours. The MTT solution was removed and 500 μL of DMSO was added to each well. Cells were imaged using GS 800 Bio Rad scanner and Quality One Software. IC50 curves were determined by plotting viability verses compound concentration. Kaleidagraph software was used to calculate the R value for each logarithmic curve fitting.

[9] = test system: CNS SF-268; experiment: NCI in vitro cell line screen (SRB), single dose; assay type: cell-based, human; details: CNS SF-268, single dose of 10 μM
Experimental: as §1, §2, §3, §4, §5, §6, §7

[10] = test system: Prostate PC-3; experiment: NCI in vitro cell line screen (SRB), single dose; assay type: cell-based, human; details: Prostate PC-3, single dose of 10 μM
Experimental: as §1, §2, §3, §4, §5, §6, §7

[11] = test system: Renal CAKI-1; experiment: NCI in vitro cell line screen (SRB), single dose; assay type: cell-based, human; details: Renal CAKI-1, single dose of 10 μM
Experimental: as §1, §2, §3, §4, §5, §6, §7

[12] = test system: Renal A498; experiment: NCI in vitro cell line screen (SRB), single dose; assay type: cell-based, human; details: Renal A498, single dose of 10 μM
Experimental: as §1, §2, §3, §4, §5, §6, §7

[13] = test system: Melanoma UACC-62; experiment: NCI in vitro cell line screen (SRB), single dose; assay type: cell-based, human; details: Melanoma UACC-62, single dose of 10 μM
Experimental: as §1, §2, §3, §4, §5, §6, §7

[14] = test system: γ-H2AX; experiment: Western blot of drug-treated MCF7 cells detecting double-strand break marker γ-H2AX; assay type: cell-based; details: 4.5 μM, 16 hours, nuclear extract, two trials (FIG. 3)
Experimental: Vehicle controls were simultaneously prepared by treatment with DMSO.
Nuclear proteins from both the drug-treated and control samples were conducted using NE-PER Nuclear and Cytoplasmic Extraction Kit (Thermo Scientific) using the manufacturer's protocol. In detail, cells were harvested by trypsin-EDTA and centrifuged at 500×g for 5 minutes. The cells were washed to remove traces of trypsin by suspending in 1×PBS, followed by centrifugation at 500×g for 2-3 minutes. The supernatant was removed leaving the cell pellet as dry as possible. A 200 μL volume of ice-cold cytoplasmic extraction reagent I (CER-I), treated Halt™ Protease & Phosphatase Inhibitor Cocktail (Thermo Scientific), was added to the pellet. The cell pellet was suspended by vortexing vigorously for 15 seconds and then incubated on ice for 10 minutes. The mixture is then treated with 11 μL of ice-cold cytoplasmic extraction reagent II (CER-II) and mixed by vortexing on the highest setting for 5 seconds followed by incubation on ice of one minute to allow complete release of cytoplasmic contents. […]
Protein concentration in each sample and control was determined by Bradford Assay using Coomassie Plus™ (Bradford) Assay Kit (Thermo Scientific), applying the manufacturer's instruction. […] The absorbance is then measured at 595 nm using a Synergy 4 plate reader (Biotek). […]

| SMILES | Growth Percent [2] [%] | Growth Percent [3] [%] | IC50 [8] [µM] | Growth Percent [10] [%] | also measured |
| --- | --- | --- | --- | --- | --- |
| CC(C)(C)C(OCc1cn([C@H]2C[C@H](O)[C@@H](CO)O2)c(=O)[nH]c1=O)c1ccccc1 (stereo partly shown) [JT-1-10, 5-[1-(phenyl)-2,2-(dimethyl)-1-propoxymethyl]-2′-deoxyuridine] | 89 | 65 | 188 | – | Growth Percent [1]: 91%; Growth Percent [4]: 90%; Growth Percent [5]: 88%; Growth Percent [6]: 87%; Growth Percent [7]: 84% |
| CC(C)(C)C(OCc1c[nH]c(=O)[nH]c1=O)c1ccccc1[N+](=O)[O-] (stereo not shown) [KB-1-17, 5-[1-(2-nitrophenyl)-2,2-(dimethyl)propoxymethyl]uracil] | 68 | – | 81 | 93 | Growth Percent [9]: 91% |
| CC(C)(C)C(OCc1cn([C@H]2C[C@H](O)[C@@H](CO)O2)c(=O)[nH]c1=O)c1ccccc1[N+](=O)[O-] (stereo partly shown) [VAL-1-15/27/42, 5-[1-(2-nitrophenyl)-2,2-(dimethyl)propoxymethyl]-2′-deoxyuridine] | 73 | 84 | 42 | 91 | Growth Percent [11]: 88% |
| CC(C)(C)CC(OCc1cn([C@H]2C[C@H](O)[C@@H](CO)O2)c(=O)[nH]c1=O)c1ccccc1 (stereo partly shown) [VAL-1-16, 5-[1-(phenyl)-3,3-(dimethyl)-1-butoxymethyl]-2′-deoxyuridine] | – | 92 | – | – | Growth Percent [12]: 92%; Growth Percent [13]: 90% |
| CC(C)(C)C(OCc1cn([C@H]2C[C@H](O)[C@@H](CO)O2)c(=O)[nH]c1=O)c1ccc(C#Cc2ccccc2)cc1[N+](=O)[O-] (stereo partly shown) [VAL-1-36/38, 5-[1-(4-{2-phenylacetylenyl}-2-nitrophenyl)-2,2-(dimethyl)-1-propoxymethyl]-2′-deoxyuridine] | – | – | 9 ± 1 | – | double-strand break marker γ-H2AX (DNA damage response) [14]: causes a DNA damage response |
